We go through 44 molecules from PMC7251097, “Aspartate/asparagine-β-hydroxylase: a high-throughput mass spectrometric assay for discovery of small molecule inhibitors” (Scientific Reports, 2020).

The target in the assay is T1, His6-AspH315–758 (human aspartate/asparagine-β-hydroxylase, AspH) (Homo sapiens, UniProt Q12797).
T1 construct: N-Terminally His6-tagged human AspH315–758 (His6-AspH315–758) was produced in E. coli BL21 (DE3) cells; made in house; host or cells: E. coli BL21 (DE3), pET-28a(+) vector
T1 sequence (Q12797 315-758): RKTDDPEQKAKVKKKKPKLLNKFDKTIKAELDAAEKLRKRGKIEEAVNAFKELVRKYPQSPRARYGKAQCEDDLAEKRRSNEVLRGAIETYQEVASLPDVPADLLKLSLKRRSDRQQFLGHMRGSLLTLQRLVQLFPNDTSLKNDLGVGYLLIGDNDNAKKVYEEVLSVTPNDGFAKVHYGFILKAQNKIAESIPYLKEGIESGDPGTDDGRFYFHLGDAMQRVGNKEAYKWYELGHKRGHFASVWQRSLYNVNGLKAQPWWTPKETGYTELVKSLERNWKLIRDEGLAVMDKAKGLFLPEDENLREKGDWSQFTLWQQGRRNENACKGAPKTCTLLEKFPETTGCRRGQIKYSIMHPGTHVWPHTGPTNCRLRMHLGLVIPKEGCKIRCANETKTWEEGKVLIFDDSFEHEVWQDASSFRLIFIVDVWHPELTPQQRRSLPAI
Description: SPE-MS AspH inhibition assay (LOPAC screen at fixed 20 μM and IC50 dose-response), hydroxylation of cyclic peptide hFX-CP101–119. As to conditions: for Inhibition at 20 µM [%]: AspH activity, fixed compound concentration 20 μM, initial LOPAC screen, 0.5%v/v DMSO. Type of assay: biochemical.

The mark [1] stands for this setting: LOPAC compound at fixed 20 uM, plate 1, normalised to DMSO and 2,4-PDCA controls.
Setting [2] is: LOPAC compound at fixed 20 uM, substrate conversion, plate 1.
Where [3] appears, read: LOPAC compound at 20uM, plate 2, conversion of substrate peptide.
[4] abbreviates: LOPAC compound at 20uM, plate 2, normalised to DMSO and 2,4-PDCA controls.
Setting [5] is: LOPAC compound at 20uM, plate 3, conversion of substrate peptide.
[6] abbreviates: LOPAC Plate 4, compound at 20 uM, substrate conversion.
Where [7] appears, read: LOPAC Plate 4, compound at 20 uM.

Like-named read-outs stand apart in the source and are kept apart here.

In the case of `COC(=O)C1=C(C)NC(C)=C([N+](=O)[O-])C1c1ccccc1C(F)(F)F` (racemic) [(±)-Bay K 8644], the “Plate 1 (% inhibition)” value under setting [1] was -22.02%. Besides, the “Plate 1 (% conversion)” value under setting [2] is 43.27%.
The like results for `CN(C)CCC(c1ccc(Br)cc1)c1ccccn1.O=C(O)/C=C\C(=O)O` (racemic) [(±)-Brompheniramine maleate] were, in that order, 8.96% and 32.86%.
In the case of `CC(C)(C)NCC(O)COc1cccc2[nH]c(=O)[nH]c12.Cl` (racemic) [(±)-CGP-12177A hydrochloride], under setting [3], the “Plate 2 (% conversion)” value was determined as 36.58%. Besides, the “Plate 2 (% inhibition)” value under setting [4] is -1.88%.
In the case of `Br.C=CCN1CCc2c(cc(O)c(O)c2Cl)C(c2ccccc2)C1` (racemic) [(±)-Chloro-APB hydrobromide, reference compound], the “Inhibition at 20 µM [%]” value is 95.8%. Further, under setting [3], the “Plate 2 (% conversion)” value is listed as 3.87%. Further, the “Plate 2 (% inhibition)” value under setting [4] was 95.82%.
As for `CN(C)CCC(c1ccc(Cl)cc1)c1ccccn1.O=C(O)/C=C\C(=O)O` (racemic) [(±)-Chlorpheniramine maleate], the “Plate 1 (% inhibition)” value under setting [1] is -6.31%. The “Plate 1 (% conversion)” value under setting [2] is on record as 37.99%.
For the molecule `CNCC(O)c1ccc(O)c(O)c1.Cl` (racemic) [(±)-Epinephrine hydrochloride], the “Plate 2 (% conversion)” value under setting [3] worked out at 6.18%. Also, the “Plate 2 (% inhibition)” value under setting [4] was determined as 88.94%.
For `NC1CCN(O)C1=O` (racemic) [(±)-HA-966], the “Plate 1 (% conversion)” value is given as 36.52% and the “Plate 1 (% inhibition)” value was -1.94%.
`COCCc1ccc(OCC(O)CNC(C)C)cc1.O=C(O)C(O)C(O)C(=O)O` (racemic) [(±)-Metoprolol (+)-tartrate]: the “Plate 3 (% conversion)” value under setting [5] is 16.57%.
In the case of `O=C(O)C1CCCNC1` (racemic) [(±)-Nipecotic acid], the “Plate 1 (% conversion)” value is reported as 30.40% and the “Plate 1 (% inhibition)” value worked out at 16.29%.
With `NC[C@H](O)c1ccc(O)c(O)c1.O=C(O)C(O)C(O)C(=O)O` (racemic) [(±)-Norepinephrine (+)bitartrate], the “Plate 1 (% inhibition)” value under setting [1] is given as 92.57%. The “Plate 1 (% conversion)” value under setting [2] was 4.78%.
Turning to `CN1CCN(C2Cc3ccccc3Sc3ccc(Cl)cc32)CC1.O=C(O)/C=C\C(=O)O` (racemic) [(±)-Octoclothepin maleate], the “Plate 3 (% conversion)” value turned out to be 45.22%.
`CCCN(CCc1ccccc1)C1CCc2c(O)cccc2C1.Cl` (racemic) [(±)-PPHT hydrochloride]: the “% conversion” value under setting [6] amounted to 27.49%.
Regarding `CC(C)NCC(O)COc1cccc2ccccc12.Cl` (racemic) [(±)-Propranolol hydrochloride], the “Plate 3 (% conversion)” value is on record as 40.68%.
As for `Br.C=CCN1CCc2cc(O)c(O)cc2C(c2ccccc2)C1` (racemic) [(±)-SKF 38393, N-allyl-, hydrobromide], the “% conversion” value is given as 11.46%. For the same molecule, under “20 µM”, the “% inhibition” value stood at 73.28%.
With `Cl.Oc1cc2c(cc1O)C(c1ccccc1)CNCC2` (racemic) [(±)-SKF-38393 hydrochloride], the “Plate 2 (% conversion)” value is reported as 10.11%. The “Plate 2 (% inhibition)” value (20 µM) turned out to be 77.21%.
Regarding `CC(C)NCC(O)c1ccc(NS(C)(=O)=O)cc1.Cl` (racemic) [(±)-Sotalol hydrochloride], the “% inhibition” value under setting [7] was -12.79%. Also, the “% conversion” value under setting [6] is 40.83%.
For the molecule `CCN1CCCC1CNC(=O)c1cc(S(N)(=O)=O)ccc1OC` (racemic) [(±)-Sulpiride], the “% inhibition” value under setting [7] is -0.19%. Under setting [6], the “% conversion” value came out at 36.54%.
Turning to `CNCC(O)c1ccc(O)cc1` (racemic) [(±)-Synephrine], the “% conversion” value is on record as 25.88%.
For `O=C1c2c(O)cc(O)cc2O[C@H](c2ccc(O)c(O)c2)[C@H]1O` (racemic) [(±)-Taxifolin, reference compound], the “Inhibition at 20 µM [%]” value stood at 97.5%. Besides, under setting [6], the “% conversion” value is 3.21%.
Turning to `O=C1CCC(N2C(=O)c3ccccc3C2=O)C(=O)N1` (racemic) [(±)-Thalidomide], the “% inhibition” value under setting [7] was -5.00%. Under setting [6], the “% conversion” value is reported as 38.18%.
Turning to `COc1cc(C(O)C(=O)O)ccc1O` (racemic) [(±)-Vanillylmandelic acid], the “Plate 2 (% conversion)” value under setting [3] was found to be 32.67%. In addition, the “Plate 2 (% inhibition)” value under setting [4] amounted to 9.80%.
Regarding `COc1ccc(CCN(C)CCCC(C#N)(c2ccc(OC)c(OC)c2)C(C)C)cc1OC.Cl` (racemic) [(±)-Verapamil hydrochloride], the “% conversion” value is 42.64%. For the same molecule, where the note is “20 µM”, the “% inhibition” value is recorded as -18.08%.
The like results for `Cl.OC1CCCCC1N1CCC(c2ccccc2)CC1` (racemic) [(±)-Vesamicol hydrochloride] were, in that order, 40.91% and -13.00%.
Regarding `O=C(O)CCCCC1CCSS1` (racemic) [(±)-alpha-Lipoic Acid], under setting [7], the “% inhibition” value was 5.35%. Besides, the “% conversion” value under setting [6] came out at 34.64%.
Take `O=C(O)[C@H]1CCCN[C@H]1C(=O)O` (racemic) [(±)-cis-Piperidine-2,3-dicarboxylic acid]: the “% conversion” value is 39.41%. The “% inhibition” value (20 µM) is on record as -8.61%.
`C=CC(N)CCC(=O)O` (racemic) [(±)-gamma-Vinyl GABA]: the “% conversion” value under setting [6] was 37.96%.
For `CCC1(c2ccc(N)cc2)CCC(=O)NC1=O` (racemic) [(±)-p-Aminoglutethimide], the “Plate 1 (% conversion)” value amounted to 34.85% and the “Plate 1 (% inhibition)” value came out at 3.03%.
`NC(Cc1ccc(Cl)cc1)C(=O)O` (racemic) [(±)-p-Chlorophenylalanine]: the “Plate 1 (% inhibition)” value under setting [1] is reported as -1.40%. Also, the “Plate 1 (% conversion)” value under setting [2] is on record as 36.34%.
Turning to `COC(=O)C1=C(C)NC(C)=C(C(=O)O[C@@H]2CCCN(Cc3ccccc3)C2)[C@@H]1c1cccc([N+](=O)[O-])c1.Cl` (racemic) [Benidipine hydrochloride], the “Plate 2 (% conversion)” value under setting [3] amounted to 31.43%. Moreover, the “Plate 2 (% inhibition)” value under setting [4] is given as 13.51%.
Turning to `CCCCS(=N)(=O)CCC(N)C(=O)O` (racemic) [DL-Buthionine-[S,R]-sulfoximine], the “Plate 1 (% conversion)” value is given as 34.26% and the “Plate 1 (% inhibition)” value is reported as 4.80%.
`N[C@@H]1CONC1=O` (racemic) [DL-Cycloserine]: under setting [1], the “Plate 1 (% inhibition)” value was -17.16%. For the same molecule, the “Plate 1 (% conversion)” value under setting [2] came out at 41.64%.
With `O=C(O)CNC(=O)C(CS)Cc1ccccc1` (racemic) [DL-Thiorphan], the “% conversion” value came out at 36.55% and the inhibition at 20 µM was -0.22%.
In the case of `CC(N)(Cc1ccc(O)cc1)C(=O)O` (racemic) [DL-alpha-Methyl-p-tyrosine], the “Plate 1 (% conversion)” value was determined as 33.46% and the “Plate 1 (% inhibition)” value came out at 7.19%.
Consider `CCCCCCCCCCCCCCC[C@H](O)[C@H](N)CO` (racemic) [DL-erythro-Dihydrosphingosine], for which the “Plate 2 (% conversion)” value under setting [3] worked out at 62.82%. For the same molecule, the “Plate 2 (% inhibition)” value under setting [4] is listed as -80.23%.
For `CCN1CCC[C@H]1CNC(=O)c1c(O)c(Cl)cc(Cl)c1OC.O=C(O)C(O)C(O)C(=O)O` (racemic) [S(+)-Raclopride L-tartrate], the “% conversion” value under setting [6] is recorded as 11.56%.
For the molecule `CN(C)C[C@H](O)Cn1c2ccc(Br)cc2c2cc(Br)ccc21` (racemic) [Wiskostatin], the “% conversion” value under setting [6] amounted to 31.93%.
In the case of `Br.CCCN1CCC2c3cc(O)ccc3CCC21` (racemic) [cis(+/-)-8-OH-PBZI hydrobromide], the “Plate 3 (% conversion)” value under setting [5] was 33.20%.
`CC(C)(C)c1cc(C(C)(C)C)c2c(c1)C(O)(C(F)(F)F)C(=O)O2` (racemic) [rac BHFF]: under setting [7], the “% inhibition” value was 72.02%. The “% conversion” value under setting [6] is on record as 11.89%.
As for `COc1ccc2c(c1OC)C(=O)OC2C1c2cc3c(cc2CCN1C)OCO3` (single isomer, unassigned; (+)) [(+)-Hydrastine], the “Plate 2 (% conversion)” value was determined as 38.28%. In addition, the inhibition at 20 µM (read-out: Plate 2 (% inhibition)) was -6.94%.
As for `CC(N)Cc1cccc(C(F)(F)F)c1.Cl` (single isomer, unassigned; (+)) [(+)-Norfenfluramine hydrochloride], the “% conversion” value was 26.61%.
For `CC(C)NCC(O)c1ccc(O)c(O)c1.Cl` (single isomer, unassigned; (-)) [(-)-Isoproterenol hydrochloride], the “Plate 3 (% conversion)” value under setting [5] was found to be 6.03%.
For the molecule `Br.CN1[C@@H]2CC(OC(=O)[C@H](CO)c3ccccc3)C[C@H]1[C@@H]1O[C@@H]12` (single isomer, unassigned; (-)) [(-)-Scopolamine hydrobromide], under “20 µM”, the “% inhibition” value is given as -9.71%.
For `C[N+]1(C)[C@@H]2CC(OC(=O)[C@H](CO)c3ccccc3)C[C@H]1[C@@H]1O[C@@H]12.O=[N+]([O-])[O-]` (single isomer, unassigned; (-)) [(-)-Scopolamine methyl nitrate], the “% conversion” value is recorded as 25.39%.
As for `CC(N)C(O)c1ccc(O)c(O)c1` (single isomer, unassigned; (-)) [(-)-alpha-Methylnorepinephrine], the “Plate 2 (% conversion)” value worked out at 7.36%. For the same molecule, where the note is “20 µM”, the “Plate 2 (% inhibition)” value worked out at 85.40%.
